The results in this text go back to US20170014375A1, “PHARMACEUTICAL COMPOSITION COMPRISING EFFECTIVE DOSE OF POMIFERIN FOR TREATING CANCERS” (Macau University of Science and Technology, priority 2015, published 2017).

For test [1], the system named is A549 (human lung cancer) cells. The experiment in a line: MTT cytotoxicity assay, A549. It counts as cell-based. The conditions noted are these: 72 h, 3 days, read-out: Means of IC50. The method, then: (§1) Pomiferin is dissolved in DMSO at a final concentration of 100 mmol/L and stored at −20° C. Cytotoxicity is assessed using the 3-(4,5-dimethylthiazol-2-yl)-2,5-diphenyltetrazolium bromide assay. 4000-8000 HeLa (human cervical cancer), MCF-7 (human breast cancer), HepG2 and Hep3B (human liver cancer), H1299 and A549 (human lung cancer), LNCap (human prostate cancer) and LLC-1 (mouse Lewis lung carcinoma) cells are seeded on 96-well plates per well. After overnight pre-incubation, the cells are exposed to different concentrations of pomiferin ([…]) for 3 days. Subsequently, 10 μL of MTT reagents is added to each well and incubated at 37° C. for 4 hours followed by the addition of 100 μL solubilization buffer (10% SDS in 0.01 mol/L HCl) and overnight incubation. Absorbance at 585 nm is determined from each well the next day. The percentage of cell viability is calculated using the following formula: Cell viability (%)=Cells number treated/Cells number DMSO control×100. Data are obtained from three independent experiments.
(In general: Tetrazolium dyes change colour on reduction, which living cells bring about.)

The subject of test [2] is caspase-7 deficient (caspase 7KO) mouse embryonic fibroblasts. As to the kind of experiment: MTT cytotoxicity assay, caspase 7KO MEFs. It counts as cell-based. The conditions noted are these: Fibroblast, 72 h, 3 days, read-out: Means of IC50. The method, then:
(§2) The test compound of pomiferin is dissolved in DMSO at a final concentration of 100 mmol/L and stored at −20° C. Cytotoxicity is assessed using the 3-(4,5-dimethylthiazol-2-yl)-2,5-diphenyltetrazolium bromide assay as previously described^29. 2500 of caspase wild-type (caspase WT), caspase-3 deficient (caspase 3KO), caspase-7 deficient (caspase 7KO), caspase-3/-7 deficient (caspase 3/7 DKO), caspase-8 deficient (caspase 8KO), Bax-Bak wild-type (Bak-Bak WT) and Bax-Bak double knock out (Bak-Bak DKO) mouse embryonic fibroblasts (MEFs) are seeded on 96-well plates per well. After overnight pre-incubation, the cells are exposed to different concentrations of pomiferin (namely 100, 50, 25, 12.5, 6.25, 3.125, 1.5625, 0.78, 0.39, 0.195, 0.079, 0.039 μmol/L) for 3 days. Subsequently, 10 μL of MTT reagents is added to each well and incubated at 37° C. for 4 hours, followed by the addition of 100 μL solubilization buffer (10% SDS in 0.01 mol/L HCl) and overnight incubation. Absorbance at 585 nm is determined from each well on the following day. The percentage of cell viability is calculated using the following formula: Cell viability (%)=Cells numbertreated/Cells numberDMSO control×100. Data is obtained from three independent experiments.

Test [3] deals with Atg7 deficient (Atg7−/−) mouse embryonic fibroblasts. The experiment in a line: Annexin V/PI flow cytometry cell death, Atg7−/− MEFs. It counts as cell-based. The conditions noted are these: 2 μM, 24 h, FIG. 6B. The method, then: Cell viability is measured using an annexin V staining kit (BD Biosciences, San Jose, Calif., USA). Briefly, Atg7 wild-type (Atg7+/+ or Atg7-wt) and Atg7 deficient (Atg7−/− or Atg7-ko) mouse embryonic fibroblasts (MEFs) are treated with the 2 μM pomiferin for 24 h. Cells are then harvested and analysed by multiparametric flow cytometry using FITC-Annexin V and Propidium iodide staining (BD Biosciences, San Jose, Calif., USA) according to the manufacturer's instructions. Flow cytometry is then carried out using a FACSCalibur flow cytometer (BD Biosciences, San Jose, Calif., USA). Data acquisition and analysis is performed with CellQuest (BD Biosciences, San Jose, Calif., USA). Data are obtained from three independent experiments.
For orientation: In flow cytometry, cells or beads pass a laser one at a time.

The subject of test [4] is H1299 (human lung cancer) cells. The experiment in a line: MTT cytotoxicity assay, H1299. It counts as cell-based. The conditions noted are these: NCI-H1299, 72 h, 3 days, read-out: Means of IC50. The method, then: as §1
Test [5] concerns caspase wild-type (caspase WT) mouse embryonic fibroblasts. As to the kind of experiment: MTT cytotoxicity assay, caspase WT MEFs. In kind it is cell-based. The conditions noted are these: Fibroblast, 72 h, 3 days, read-out: Means of IC50. The method, then: as §2
For another test, the system named is HeLa cells. The experiment in a line: Cytosolic calcium detection by flow cytometry (Fluo-3). The conditions noted are these: 10 μM, 10 min to 4 h, FIG. 4A. In kind it is cell-based, human. The method, then: Changes in intracellular free calcium are measured by a fluorescent dye, Fluo-3, as described previously^21. Briefly, HeLa cells are washed twice with MEM medium after pomiferin treatment (10 μM) for various times (10 min, 0.5 h, 1 h, 2 h, 4 h). Then cell suspensions are incubated with 5 μM Fluo-3 at 37° C. for 30 min. Then the cells are washed twice with HBSS. After re-suspended cell samples are subjected to FACS analysis, at least 10,000 events are analyzed.

Test [6] concerns HCT-116 p53−/− isogenic colon cancer cells. The experiment in a line: MTT cytotoxicity assay, HCT116 p53−/−. In kind it is cell-based. As to conditions: Homo sapiens, HCT-116, 72 h, HCT116 p53−/− (p53-deficient), 3 days, read-out: Means of IC50. The method, then: as §2, with “4000” for “2500”, “drug-resistant HCT-116 p53+/+, HCT-116 p53−/−” for “caspase wild-type (caspase WT), caspase-3 deficient (caspase 3KO), caspase-7 deficient (caspase 7KO), caspase-3/-7 deficient (caspase 3/7 DKO), caspase-8 deficient (caspase 8KO), Bax-Bak wild-type (Bak-Bak WT)”, “HCT-116 p53−/− isogenic colon cancer cells” for “Bax-Bak double knock out (Bak-Bak DKO) mouse embryonic fibroblasts (MEFs)”, “[…])” for “μmol/L)”

Test [7] deals with HepG2 (human liver cancer) cells. The experiment in a line: MTT cytotoxicity assay, HepG2. The conditions noted are these: 72 h, 3 days, read-out: Means of IC50. It counts as cell-based. The method, then:
as §1

Test [8] concerns caspase-3/-7 deficient (caspase 3/7 DKO) mouse embryonic fibroblasts. The experiment in a line: MTT cytotoxicity assay, caspase 3/7 DKO MEFs. In kind it is cell-based. As to conditions: Fibroblast, 72 h, 3 days, read-out: Means of IC50. The method, then: as §2
Test [9] has as its system LNCap (human prostate cancer) cells. As to the kind of experiment: MTT cytotoxicity assay, LNCap. It counts as cell-based. The conditions noted are these: 72 h, 3 days, read-out: Means of IC50. The method, then: as §1

SMILES strings stand for the structures.

Regarding `CC(C)=CCc1c2c(c3occ(-c4ccc(O)c(O)c4)c(=O)c3c1O)C=CC(C)(C)O2` [pomiferin], the IC50 (as a rule, the concentration needed to halve the response being measured) was 20.3 µM in [1]; 3.95 µM in test [2]; 16.3 µM in [4]; 7.63 µM in [5]; 6.12 µM in test [6]; 13.6 µM in test [7]. The figures for the IC50 in test [8] and in test [9] were 2.21 µM and 16.2 µM, respectively. In addition, the “cell death (in words)” value in test [3] is reported as “not in autophagy deficient cells”. In addition, the cytosolic calcium level result in the test on HeLa cells is “increase the cytosolic calcium level in a time dependent manner”.
